We go through 4 compounds from patent US20170014469A1, “METHODS OF RE[…] LATENT HUMAN IMMUNODEFICIENCY VIRUS” (priority 2013, published 2017).

For assay [1], the system named is latent HIV-1 infection in CA5 T cells. Type of assay: cell-based. The settings on record: for HIV-1 reactivation in combination with bryostatin: 24 hour pretreatment with proteasome inhibitor, bryostatin titrated; for HIV-1 reactivation in combination with bryostatin / HIV-1 reactivation in combination with disulfiram: read 24 hours after addition; for HIV-1 reactivation by the proteasome inhibitor by itself: CA5 T cells pretreated 24 hours; for HIV-1 reactivation in combination with disulfiram: 24 hour pretreatment with bortezomib, disulfiram titrated, FIG. 3. The method, then: Increased protein-ubiquitination for targeting to the proteasome by the E3 ubiquitin ligase GRAIL is a hallmark of T cell anergy. […] FIG. 2B is a graph showing bortezomib in combination with the activator bryostatin. FIG. 2C is a graph showing bortezomib in combination with the activator prostratin.
CA5 T cells were pretreated for 24 hours with bortezomib. Disulfiram was titrated on control cells or bortezomib pretreated T cells. Reactivation was measured 24 hours after disulfiram addition by determining the percentage of GFP-positive cells using flow cytometric analysis.
CA5 T cells were pretreated for 24 hours with carfilzomib. Bryostatin was titrated on control cells or carfilzomib pretreated T cells. Reactivation was measured 24 hours after bryostatin addition by determining the percentage of GFP-positive cells using flow cytometric analysis.
As mentioned above, T cell anergy has been reported to be associated with a series of changes in the kinase activity profile. A hallmark of T cell anergy is the expression of GRAIL (gene related to anergy in lymphocytes), a trans-membrane RING finger ubiquitin E3 ligase (Anandasabapathy et al., Immunity 18:535-547 (2003)). As other ubiquitin ligases, GRAIL tags proteins for degradation by the proteasome. […] In order to determine this, two FDA-approved proteasome inhibitors, bortezomib and carfilzomib, were tested for their ability to mobilize latent HIV-1 infection, either by themselves, or in combination with potentially therapeutically relevant known HIV-1 reactivating activators, such as bryostatin, prostratin, and disulfiram.

In assay [2] the test system is latent HIV-1 infection in J2574 reporter T cells. As to the kind of experiment: Establishment of latent HIV-1 infection in J2574 reporter T cells after ionomycin pretreatment. Type of assay: cell-based. The settings on record: ionomycin pretreatment of J2574 T cells versus untreated control, independent of the level of virus input, FIG. 2A. From the text:
FIGS. 2A, 2B, and 2C show targeting anergy-related mechanisms alters HIV-1 latency control. […] Increased protein-ubiquitination for targeting to the proteasome by the E3 ubiquitin ligase GRAIL is a hallmark of T cell anergy. […] FIG. 2B is a graph showing bortezomib in combination with the activator bryostatin. FIG. 2C is a graph showing bortezomib in combination with the activator prostratin.
Without being bound by any theory, a working concept derived from the altered cellular phenotype observed in latently HIV-1 infected T cells could be that HIV-1 latency is correlated with the induction of a pseudoanergic state of the host-cell. HIV-1 infection has been reported to be associated with high levels of induced T cell anergy. Exposure to gp120 has been reported to be sufficient to trigger T cell anergy (Bouhdoud et al., Journal of Virology 74:2121-2130 (2000); Dybul et al., J. Immunol. 165:1685-91 (2000); Masci et al., Journal of Leukocyte Biology 74:1117-1124 (2003); and Schols and De Clercq, Journal of Virology 70:4953-4960 (1996)). Also, other retroviruses are reported to induce epigenetic changes in their host cells. Ubiquitin and CDK2 are also known to be involved in T cell anergy (Greenwald et al., Immunity 14:145-155 (2001); and Li et al., Nature Immunology 7:1157-65 (2006)). […]

The test system of assay [3] is latently HIV-1 infected EF7 and CA5 T cells. The settings on record: PMA stimulation; cited from earlier work.

“Also recorded” adds a separate entry of the source. Where two headings read alike, the source gives them in different places.

Regarding `CC(C)C[C@H](NC(=O)[C@H](CCc1ccccc1)NC(=O)CN1CCOCC1)C(=O)N[C@@H](Cc1ccccc1)C(=O)N[C@@H](CC(C)C)C(=O)[C@@]1(C)CO1` [carfilzomib], the “HIV-1 reactivation in combination with bryostatin” value in assay [1] (CA5 T cells) was “trigger HIV-1 reactivation”; in assay [1] (CA5 T cells, listed as Carfilzomib) it was “potently interacted”. In addition, in assay [1], the “HIV-1 reactivation by the proteasome inhibitor by itself” value is “triggered HIV-1 reactivation”.
`CC(C)C[C@H](NC(=O)[C@H](Cc1ccccc1)NC(=O)c1cnccn1)B(O)O` [bortezomib]: the “HIV-1 reactivation in combination with prostratin” value in assay [1] (24 hour pretreatment with bortezomib (5 nM), prostratin titrated, CA5 T cells, FIG. 2C) is “interacted with prostratin”. Besides, in assay [1] (CA5 T cells), the “HIV-1 reactivation in combination with disulfiram” value is listed as “synergistically trigger HIV-1 reactivation” and the “HIV-1 reactivation in combination with bryostatin” value is “highly synergistic”. In addition, the “HIV-1 reactivation in combination with disulfiram” value in assay [1] (CA5 T cells, listed as Bortezomib) is on record as “interacted”. The “activator concentrations required to trigger full HIV-1 reactivation at the population level” value in assay [1] (24 hour pretreatment with proteasome inhibitor (bortezomib 5 nM), activators bryostatin or prostratin, CA5 T cells) was “reduces”. Besides, the “latently infected T cells in which latent HIV-1 infection was mobilized” value in assay [1] (bortezomib 5 nM by itself, CA5 T cells, FIG. 2B) is on record as about 30%. In addition, the “HIV-1 reactivation by the proteasome inhibitor by itself” value in assay [1] is on record as “mobilizes latent HIV-1 infection”.
On to `C[C@H](CCC(=O)O)C[C@H](C)C[C@H](C)C(=O)/C=C(\O)[C@H](C)C[C@H](C)C/C=C/[C@@H](C)[C@@H](O)[C@@H](C)[C@@H](O)C[C@@H]1CC[C@@](C)([C@H]2CC[C@@](C)([C@@H](C)O)O2)O1` [ionomycin], for which the “amount of established stable latent infection events” value in assay [2] is recorded as “promotes the establishment of latent HIV-1 infection; also recorded: almost doubled”.
As to `CCCCCCCCCCCCCC(=O)O[C@@H]1[C@@H](C)[C@@]2(O)[C@@H](C=C(CO)C[C@]3(O)C(=O)C(C)=C[C@@H]23)[C@@H]2C(C)(C)[C@]12OC(C)=O` [PMA, phorbol 12-myristate 13-acetate], the “reactivation at the population level” value in assay [3] is over 90%.
